Assay results taken from patent publication US20170119892A1, “REFILLABLE DRUG DELIVERY DEVICES AND METHODS OF USE THEREOF” (President and Fellows of Harvard College, priority 2014, published 2017).

How the values were obtained:
[1] = tested on: MDA-MB-231 xenograft tumors; assay: Xenograft tumor study with drug refilling; type: in vivo, J:Nu mice; settings: 120 ug doxorubicin per animal IV weekly
Procedure: Tumors were created by injecting 10^6 MDA-MB-231 cells (American Type Culture Collection, VA) combined with Matrigel (BD Biosciences, CA) to a total volume of 200 μL (100 μL PBS and 100 μL Matrigel) into the hind limbs of 8 week old J:Nu (Foxn1^nu/Foxn1^nu) mice (Jackson Labs, ME). 35 days following tumor inoculation tumors were injected with alginate gels. 20 mg/mL alginate conjugated to DNA (thioT-SH or unconjugated) was mixed with doxorubicin (1.6 mg drug per mL of gel), then crosslinked with 4% wt/v CaSO4 (1.22 M) and then 50 μL of gel were injected into tumors with a 23-gauge needle. 2, 3, 4, and 5 weeks after initial tumoral gel injection, mice were injected retro-orbitally with 100 μL 0.5% DNA-conjugated alginate carrying doxorubicin (5% oxidized alginate, thioA-SH, Dye-750, 160 ug Dox-hydrazide=120 μg Dox). Throughout the study, tumor area was measured twice per week with digital calipers in two dimensions and the product of the two dimensional values was used to approximate tumor area. Mice were sacrificed on day 49. […]
Immunocompromised mice bearing MDA-MB-231 xenograft tumors were injected intra-tumor with phosphorothioate DNA-conjugated alginate gels releasing doxorubicin (80 ug per animal) or bolus doxorubicin in PBS. […] The ability of targeted therapy to reduce tumor size was assessed by monitoring the change in tumor size in the three days following each IV administration.

[2] = tested on: Alginate conjugated to (T)20 oligonucleotides, ionically crosslinked with calcium to form a gel; assay: Binding of fluorescently-labeled oligonucleotides to DNA-conjugated calcium-alginate gels in vitro; settings: phosphate buffer with 1 mM calcium chloride
[3] = Alginate circulation time in the blood; type: in vivo, C57/B6 mice
Procedure: C57/B6 mice were injected retro-orbitally with 100 μL 0.5% fluorescent alginate (unoxidized alginate, Dye-750). Mice were shaved on the front and back and imaged with an IVIS Spectrum in vivo imager (ex: 745, em: 820) over 30 days. Shaving was repeated before every image collection. Fluorescence in the blood was measured through quantification of fluorescence in the snout area.
Efficient blood-based refilling of drug payloads relies on sufficient circulation lifetimes that allow payloads to encounter and bind to the primary device. The circulation time of alginate (285 KDa, 44 nm hydrodynamic radius (Rh)) conjugated to a near-IR probe (FIG. 6A) was analyzed following intravenous (IV) administration to mice. […] With a long circulation time, alginate can serve as an efficient intra-vascular drug carrier with the capability of extravasating and interacting with the primary drug delivery device.

## COc1cccc2c1C(=O)c1c(O)c3c(c(O)c1C2=O)C[C@@](O)(C(=O)CO)C[C@@H]3O[C@H]1C[C@H](N)[C@H](O)[C@H](C)O1 [doxorubicin]
[1]
  change in tumor size in the three days following each IV administration: continued to grow

## (A)20: fluorescently-labeled AAAAAAAAAAAAAAAAAAAA-FAM oligonucleotide, SEQ ID NO: 6
[2]
  binding of fluorescently-labeled oligonucleotides to gel surface: bound to the gel surface in a sequence-specific manner

## (T)20: fluorescently-labeled TTTTTTTTTTTTTTTTTTTT-FAM oligonucleotide, SEQ ID NO: 5
[2]
  binding of fluorescently-labeled oligonucleotides to gel surface: little binding

## alginate
[3]; IV administration to mice
  circulatory half-life: about seven
[3]; IV administration to mice, blood fluorescence measured at snout
  remained in circulation: at least 14 days
[3]; two days after injection
  organ accumulation (imaging of individual organs): accumulation in the lungs, liver, spleen, and to a lesser extent in the kidneys
